Measured values from the supplement of paper PMC10307832.

Assays:
Assay in all cases: relative viability (nuclei count vs DMSO), 5 days (fraction); higher = more cells survive
HCC-827 = tested on: HCC-827
Summary of the method: (§1)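 Lung cancer cell lines in 1536-well plates got either a single drug or a fixed anchor-drug dose together with five library-drug doses (not always all listed) in √10 steps, by pin tool, on the day after seeding. Nuclei were counted after 5 days, and relative viability is the treated-to-vehicle ratio of nuclei counts. Values are medians of duplicate plates.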

NCI-H2087 = tested on: NCI-H2087
Summary of the method: as §1

CAL-12T = tested on: CAL-12T
Summary of the method: as §1

HCC-366 = tested on: HCC-366
Summary of the method: as §1

NCI-H1993 = tested on: NCI-H1993
Summary of the method: as §1

NCI-H727 = tested on: NCI-H727
Summary of the method: as §1

LCLC-97TM1 = tested on: LCLC-97TM1
Summary of the method: as §1

COR-L 105 = tested on: COR-L 105
Summary of the method: as §1

NCI-H2009 = tested on: NCI-H2009
Summary of the method: as §1

NCI-H2170 = tested on: NCI-H2170
Summary of the method: as §1

HOP-62 = tested on: HOP-62
Summary of the method: as §1

LXF-289 = tested on: LXF-289
Summary of the method: as §1

PC-3 [JPC-3] = tested on: PC-3 [JPC-3]
Summary of the method: as §1

PC-14 = tested on: PC-14
Summary of the method: as §1

HARA = tested on: HARA
Summary of the method: as §1

COR-L23 = tested on: COR-L23
Summary of the method: as §1

HCC-44 = tested on: HCC-44
Summary of the method: as §1

LC-2-ad = tested on: LC-2-ad
Summary of the method: as §1

BEN = tested on: BEN
Summary of the method: as §1

SK-MES-1 = tested on: SK-MES-1
Summary of the method: as §1

LU99A = tested on: LU99A
Summary of the method: as §1

HCC-15 = tested on: HCC-15
Summary of the method: as §1

NCI-H2126 = tested on: NCI-H2126
Summary of the method: as §1

O=c1[nH]c2ccccc2n1C1CCN(CCCC(c2ccc(F)cc2)c2ccc(F)cc2)CC1 [Pimozide] + CC(=O)Nc1cccc(-n2c(=O)n(C3CC3)c(=O)c3c(Nc4ccc(I)cc4F)n(C)c(=O)c(C)c32)c1 [Trametinib] (partner 0.02 µM)
relative viability (HCC-827; first compound 0.253 µM): 0.538
relative viability (HCC-827; first compound 0.8 µM): 0.556
relative viability (HCC-827; first compound 2.53 µM): 0.532
relative viability (HCC-827; first compound 8 µM): 0.561
relative viability (NCI-H2087; first compound 0.08 µM): 0.243
relative viability (NCI-H2087; first compound 0.253 µM): 0.24
relative viability (NCI-H2087; first compound 2.53 µM): 0.179
relative viability (NCI-H2087; first compound 8 µM): 0.205
relative viability (CAL-12T; first compound 0.08 µM): 0.326
relative viability (CAL-12T; first compound 0.253 µM): 0.291
relative viability (CAL-12T; first compound 0.8 µM): 0.34
relative viability (CAL-12T; first compound 2.53 µM): 0.272
relative viability (CAL-12T; first compound 8 µM): 0.251
relative viability (HCC-366; first compound 0.08 µM): 0.32
relative viability (HCC-366; first compound 0.253 µM): 0.282
relative viability (HCC-366; first compound 0.8 µM): 0.361
relative viability (HCC-366; first compound 2.53 µM): 0.298
relative viability (HCC-366; first compound 8 µM): 0.34
relative viability (NCI-H1993; first compound 0.08 µM): 0.561
relative viability (NCI-H1993; first compound 0.253 µM): 0.495
relative viability (NCI-H1993; first compound 0.8 µM): 0.596
relative viability (NCI-H1993; first compound 2.53 µM): 0.484
relative viability (NCI-H1993; first compound 8 µM): 0.553
relative viability (NCI-H727; first compound 0.08 µM): 0.396
relative viability (NCI-H727; first compound 0.253 µM): 0.426
relative viability (NCI-H727; first compound 0.8 µM): 0.383
relative viability (NCI-H727; first compound 2.53 µM): 0.443
relative viability (NCI-H727; first compound 8 µM): 0.403
relative viability (LCLC-97TM1; first compound 0.08 µM): 0.191
relative viability (LCLC-97TM1; first compound 0.253 µM): 0.189
relative viability (LCLC-97TM1; first compound 0.8 µM): 0.166
relative viability (LCLC-97TM1; first compound 2.53 µM): 0.185
relative viability (LCLC-97TM1; first compound 8 µM): 0.207
relative viability (COR-L 105; first compound 0.08 µM): 0.399
relative viability (COR-L 105; first compound 0.253 µM): 0.418
relative viability (COR-L 105; first compound 0.8 µM): 0.425
relative viability (COR-L 105; first compound 2.53 µM): 0.437
relative viability (COR-L 105; first compound 8 µM): 0.779
relative viability (NCI-H2009; first compound 0.08 µM): 0.256
relative viability (NCI-H2009; first compound 0.253 µM): 0.276
relative viability (NCI-H2009; first compound 0.8 µM): 0.284
relative viability (NCI-H2009; first compound 2.53 µM): 0.321
relative viability (NCI-H2009; first compound 8 µM): 0.225
relative viability (NCI-H2170; first compound 0.08 µM): 0.943
relative viability (NCI-H2170; first compound 0.253 µM): 0.874
relative viability (NCI-H2170; first compound 0.8 µM): 0.832
relative viability (NCI-H2170; first compound 2.53 µM): 0.83
relative viability (NCI-H2170; first compound 8 µM): 0.857
relative viability (HOP-62; first compound 0.08 µM): 0.362
relative viability (HOP-62; first compound 0.253 µM): 0.347
relative viability (HOP-62; first compound 2.53 µM): 0.328
relative viability (HOP-62; first compound 8 µM): 0.389
relative viability (LXF-289; first compound 0.08 µM): 0.623
relative viability (LXF-289; first compound 0.253 µM): 0.67
relative viability (LXF-289; first compound 0.8 µM): 0.627
relative viability (LXF-289; first compound 2.53 µM): 0.687
relative viability (LXF-289; first compound 8 µM): 0.674
relative viability (PC-3 [JPC-3]; first compound 0.253 µM): 0.683
relative viability (PC-3 [JPC-3]; first compound 0.8 µM): 0.651
relative viability (PC-3 [JPC-3]; first compound 2.53 µM): 0.656
relative viability (PC-3 [JPC-3]; first compound 8 µM): 0.607
relative viability (PC-14; first compound 0.253 µM): 0.622
relative viability (PC-14; first compound 0.8 µM): 0.686
relative viability (PC-14; first compound 2.53 µM): 0.607
relative viability (PC-14; first compound 8 µM): 0.62
relative viability (HARA; first compound 0.08 µM): 0.612
relative viability (HARA; first compound 0.253 µM): 0.662
relative viability (HARA; first compound 0.8 µM): 0.739
relative viability (HARA; first compound 2.53 µM): 0.458
relative viability (HARA; first compound 8 µM): 0.631
relative viability (COR-L23; first compound 0.08 µM): 0.541
relative viability (COR-L23; first compound 0.253 µM): 0.596
relative viability (COR-L23; first compound 0.8 µM): 0.602
relative viability (COR-L23; first compound 2.53 µM): 0.629
relative viability (COR-L23; first compound 8 µM): 0.478
relative viability (HCC-44; first compound 0.08 µM): 1.1
relative viability (HCC-44; first compound 0.253 µM): 1.18
relative viability (HCC-44; first compound 0.8 µM): 0.913
relative viability (HCC-44; first compound 2.53 µM): 0.979
relative viability (HCC-44; first compound 8 µM): 0.887
relative viability (LC-2-ad; first compound 0.08 µM): 0.886
relative viability (LC-2-ad; first compound 0.253 µM): 0.819
relative viability (LC-2-ad; first compound 0.8 µM): 0.893
relative viability (LC-2-ad; first compound 2.53 µM): 0.904
relative viability (LC-2-ad; first compound 8 µM): 0.897
relative viability (BEN; first compound 0.08 µM): 1.17
relative viability (BEN; first compound 0.253 µM): 1.16
relative viability (BEN; first compound 0.8 µM): 1.01
relative viability (BEN; first compound 2.53 µM): 0.984
relative viability (BEN; first compound 8 µM): 1.29
relative viability (SK-MES-1; first compound 0.08 µM): 0.533
relative viability (SK-MES-1; first compound 0.253 µM): 0.517
relative viability (SK-MES-1; first compound 0.8 µM): 0.508
relative viability (SK-MES-1; first compound 2.53 µM): 0.744
relative viability (SK-MES-1; first compound 8 µM): 0.441
relative viability (LU99A; first compound 0.08 µM): 0.66
relative viability (LU99A; first compound 0.8 µM): 0.522
relative viability (LU99A; first compound 2.53 µM): 0.48
relative viability (LU99A; first compound 8 µM): 0.524
relative viability (HCC-15; first compound 0.08 µM): 0.398
relative viability (HCC-15; first compound 0.253 µM): 0.355
relative viability (HCC-15; first compound 0.8 µM): 0.386
relative viability (HCC-15; first compound 2.53 µM): 0.358
relative viability (HCC-15; first compound 8 µM): 0.34
relative viability (NCI-H2126; first compound 0.08 µM): 0.589
relative viability (NCI-H2126; first compound 0.253 µM): 0.584
relative viability (NCI-H2126; first compound 0.8 µM): 0.566
relative viability (NCI-H2126; first compound 2.53 µM): 0.592
relative viability (NCI-H2126; first compound 8 µM): 0.533
